{
  "source": "patent US5677419A",
  "about": "“Cyclic vasoactive peptide analogs” (Hoffmann-La Roche Inc., priority 1994, dated 1997)",
  "key": {"[1]": {"test_system": "guinea pig tracheal smooth muscle", "assay": "Tracheal relaxant activity of VIP analogs on isolated guinea pig tracheal rings", "type": "cell-based", "details": "cumulative concentration response, relaxation as % of maximum response to VIP (10^-6 M=100%), three tissues pooled, linear regression", "procedure": "The relaxant activity of the VIP analogs were studied in a model utilizing guinea pig trachea. [Wasserman, M. A. et al., in Vasoactive Intestinal Peptide, S. I. Said, ed., Raven Press, New York 1982, pp 177-184] All tissues were taken from male albino guinea pig weighing 400-600 g, anesthetized with urethane (2 g/kg, i.p.). After exanguination, the trachea were removed and divided into four ring segments (3 mm length). Each ring was suspended by 30 gauge stainless steel wires in a 10 mL jacketed tissue bath and attached via 4-0 silk thread to a GRASS force displacement transducer (model FT03C, Grass Instruments Co., Quincy, Mass.), for isometric recording of tension. The smooth muscle was bathed in modified Krebs solution of the following composition: NaCl, 120 mM; KCl, 4.7 mM; CaCl2, 2.5 mM; MgSO4.7H2 O, 1.2 mM; NaHCO3, 25 mM; K2 HPO4 monobasic, 1.2 mM; and dextrose, 10 mM. Tissue baths were maintained at 37° C. and constantly bubbled with 95% O2 and 5% CO2. Responses were recorded on an 8 channel and a 4 channel HEWLETT-PACKARD (model 7702B and 7754A, respectively) recorder (Hewlett- Packard, Paramus, N.J.). Tracheal rings were placed under a resting tension of 1.5 g which was determined to be at or near optimal in preliminary experiments. Frequent readjustments of tension were required during the 60 minute stabilization period which followed. Tissues were rinsed at 15 minute intervals.\nCumulative concentration response curves were obtained for each tissue by successive […] increases in the bath concentration of VIP or VIP analogs according to the method of VanRossum [Arch. Int. Pharmacodyn., 143, 299-330 (1963)]. Only one cumulative dose response curve was obtained on a single tissue. To minimize variability between tissues, relaxant responses were expressed as a percentage of the maximum response obtained to VIP (10^-6 M=100%) added at the end of each concentration response experiment. Responses obtained from three tissues were pooled and EC50 values were determined by linear regression.\nThe results summarized in Table I show the tracheal relaxant activity of the VIP analogs in comparison to native VIP."}, "guinea pigs": {"test_system": "guinea pigs", "assay": "In vivo bronchodilator activity by tracheal instillation against histamine challenge", "design": "species or system guinea pig", "details": "anesthetized male guinea pigs, inhibition of histamine (i.v.)-induced rise in tracheal pressure", "procedure": "The in vivo bronchodilator activity of VIP and VIP analogs in guinea pigs was assessed by the tracheal instillation route of administration. This technique utilized male guinea pigs (Hartley strain, Charles River) weighing 400-600 g. Animals were anesthetized with urethane (2 g/kg) intraperitoneally and a polyethylene cannula was inserted into the jugular vein for intraveneous drug administration.\nThe animals were tracheotomized and dosing solutions of distilled water or test compound dissolved in distilled water were administered into the trachea, approximately three-quarters the distance to the carina with a pipette. The concentration of the dosing solution was adjusted to deliver a constant volume of […]. The animals were placed supine for one minute to aid drug delivery to the lung. One minute later, spontaneous breathing was arrested with succinylcholine chloride (1.2 mg/kg) administered intraveneously, and the animals were ventilated with a HARVARD Model 680 small animal respirator set at 40 breaths/min and 4.0 cm^3 stroke volume. The animals were challenged with a maximal constrictory dose of histamine ([…], i.v.) and tracheal pressure (cm of water) was recorded from a STATHAM pressure transducer (P 32 AA).\nThe change in tracheal pressure was averaged for at least 3 control and 3 drug-treated animals and percent inhibition was calculated. The relative potency of compounds administered by the instillation route was determined by administering various doses of test compound and calculating the median effective dose (ED50 value). The ED50 was determined from log dose-response curves generated by at least 3 doses that caused inhibitory effects between 10% and 90%. The correlation coefficients for the regression line of each compound was always greater than 0.95.\nFor determination of the time course of inhibition for various compounds, the time between administration of compound and challenge with histamine was varied. The time course of activity was calculated as the time when inhibition decreased to 40%.\nThe results summarized in Table II show the in vivo bronchodilator activity of the VIP analogs in comparison to native VIP."}},
  "note": "Where a SMILES comes first, the peptide text is derived from it. Bridges are numbered along the chain shown (N, C = ends). [ ]: non-standard residue; d: D form. Phe(4-NH2) = Nc1ccc(C[C@H](N)C(=O)O)cc1; Phe(4-F) = N[C@@H](Cc1ccc(F)cc1)C(=O)O; 1Nal = N[C@@H](Cc1cccc2ccccc12)C(=O)O; Nle = CCCC[C@H](N)C(=O)O; Orn = NCCC[C@H](N)C(=O)O",
  "data": [
    {"smiles": "CCCC[C@H](NC(=O)[C@H](CCC(N)=O)NC(=O)[C@H](CCCCN)NC(=O)[C@H](CCCNC(=N)N)NC(=O)[C@H](CC(C)C)NC(=O)[C@H](CCCCN)NC(=O)[C@@H](NC(=O)[C@H](Cc1ccc(O)cc1)NC(=O)[C@H](CC(N)=O)NC(=O)[C@H](CCC(=O)O)NC(=O)[C@@H](NC(=O)[C@H](Cc1ccccc1)NC(=O)[C@@H](NC(=O)[C@H](C)NC(=O)[C@H](CC(=O)O)NC(=O)[C@H](C)NC(=O)[C@H](Cc1c[nH]cn1)NC(C)=O)C(C)C)[C@@H](C)O)[C@@H](C)O)C(=O)N[C@@H](C)C(=O)N[C@@H](C)C(=O)N[C@@H](CCCCN)C(=O)N[C@H]1CCCCNC(=O)C[C@@H](C(=O)N[C@@H](CC(C)C)C(=O)N[C@@H](CCCCN)C(=O)N[C@@H](CCCCN)C(=O)NCC(=O)NCC(=O)N[C@H](C(N)=O)[C@@H](C)O)NC(=O)[C@H](CC(N)=O)NC(=O)[C@H](CC(C)C)NC(=O)[C@H](Cc2ccc(O)cc2)NC1=O", "note": "[SEQ ID NO:51, Ac-[Ala^2,Glu^8,Lys^12,Nle^17,Ala^19,Asp^25,Leu^26,Lys^27,28,Gly^29,30,Thr^31]-VIP cyclo (Lys^21 →Asp^25)] (Ac-HADAVFTENYTKLRKQ[Nle]AAKKYLNDLKKGGT-NH2; lactam 21-25)", "values": [
      {"measurement": "EC50", "setting": "[1]", "value": 0.92, "unit": "nM"},
      {"measurement": "Bronchodilator activity of VIP analogs in guinea pigs, ED50", "setting": "guinea pigs", "value": 0.1, "unit": "μg"}
    ]},
    {"smiles": "CCCC[C@H](NC(=O)[C@H](CCC(N)=O)NC(=O)[C@H](CCCCN)NC(=O)[C@H](CCCNC(=N)N)NC(=O)[C@H](CC(C)C)NC(=O)[C@H](CCCCN)NC(=O)[C@@H](NC(=O)[C@H](Cc1ccc(O)cc1)NC(=O)[C@H](CC(N)=O)NC(=O)[C@H](CCC(=O)O)NC(=O)[C@@H](NC(=O)[C@H](Cc1ccccc1)NC(=O)[C@@H](NC(=O)[C@H](C)NC(=O)[C@H](CC(=O)O)NC(=O)[C@H](CO)NC(=O)[C@H](Cc1c[nH]cn1)NC(C)=O)C(C)C)[C@@H](C)O)[C@@H](C)O)C(=O)N[C@@H](C)C(=O)N[C@@H](C)C(=O)N[C@@H](CCCCN)C(=O)N[C@H]1CCCCNC(=O)C[C@@H](C(=O)N[C@H](C(=O)N[C@@H](CC(C)C)C(=O)N[C@H](C(=O)NCC(=O)NCC(=O)N[C@H](C(N)=O)[C@@H](C)O)[C@@H](C)O)C(C)C)NC(=O)[C@H](CC(N)=O)NC(=O)[C@H](CC(C)C)NC(=O)[C@H](Cc2ccc(O)cc2)NC1=O", "note": "[SEQ ID NO:65, Ac-[Glu^8,Lys^12,Nle^17,Ala^19,Asp^25,Val^26,Thr^28,Gly^29,30,Thr^31]-VIP cyclo (Lys^21 →Asp^25)] (Ac-HSDAVFTENYTKLRKQ[Nle]AAKKYLNDVLTGGT-NH2; lactam 21-25)", "values": [
      {"measurement": "EC50", "setting": "[1]", "value": 0.88, "unit": "nM"},
      {"measurement": "Bronchodilator activity of VIP analogs in guinea pigs, ED50", "setting": "guinea pigs", "value": 0.84, "unit": "μg"}
    ]},
    {"smiles": "CCCC[C@H](NC(=O)[C@H](CCC(N)=O)NC(=O)[C@H](CCCCN)NC(=O)[C@H](CCCNC(=N)N)NC(=O)[C@H](CC(C)C)NC(=O)[C@H](CCCCN)NC(=O)[C@@H](NC(=O)[C@H](Cc1ccc(O)cc1)NC(=O)[C@H](CC(N)=O)NC(=O)[C@H](CC(=O)O)NC(=O)[C@@H](NC(=O)[C@H](Cc1cccc2ccccc12)NC(=O)[C@@H](NC(=O)[C@H](C)NC(=O)[C@H](CC(=O)O)NC(=O)[C@H](CO)NC(=O)[C@H](Cc1c[nH]cn1)NC(C)=O)C(C)C)[C@@H](C)O)[C@@H](C)O)C(=O)N[C@@H](C)C(=O)N[C@@H](C)C(=O)N[C@@H](CCCCN)C(=O)N[C@H]1CCCCNC(=O)C[C@@H](C(=O)N[C@H](C(=O)N[C@@H](CC(C)C)C(=O)N[C@H](C(N)=O)[C@@H](C)O)C(C)C)NC(=O)[C@H](CC(N)=O)NC(=O)[C@H](CC(C)C)NC(=O)[C@H](Cc2ccc(O)cc2)NC1=O", "note": "[SEQ ID NO:50, Ac-[1-Nal^6,Lys^12,Nle^17,Ala^19,Asp^25,Val^26,Thr^28]-VIP cyclo (Lys^21 →Asp^25)] (Ac-HSDAV[1Nal]TDNYTKLRKQ[Nle]AAKKYLNDVLT-NH2; lactam 21-25)", "values": [
      {"measurement": "EC50", "setting": "[1]", "value": 2.9, "unit": "nM"}
    ]},
    {"smiles": "CCCC[C@H](NC(=O)[C@H](CCC(N)=O)NC(=O)[C@H](CCCCN)NC(=O)[C@H](CCCNC(=N)N)NC(=O)[C@H](CC(C)C)NC(=O)[C@H](CC(C)C)NC(=O)[C@@H](NC(=O)[C@H](Cc1ccc(N)cc1)NC(=O)[C@H](CC(N)=O)NC(=O)[C@H](CC(=O)O)NC(=O)[C@@H](NC(=O)[C@H](Cc1ccc(F)cc1)NC(=O)[C@@H](NC(=O)[C@H](C)NC(=O)[C@H](CC(=O)O)NC(=O)[C@H](CO)NC(=O)[C@H](Cc1c[nH]cn1)NC(C)=O)C(C)C)[C@@H](C)O)[C@@H](C)O)C(=O)N[C@@H](C)C(=O)N[C@@H](C)C(=O)N[C@@H](CCCCN)C(=O)N[C@H]1CCCCNC(=O)C[C@@H](C(=O)N[C@H](C(=O)N[C@@H](CC(C)C)C(=O)N[C@H](C(N)=O)[C@@H](C)O)C(C)C)NC(=O)[C@H](CC(N)=O)NC(=O)[C@H](CC(C)C)NC(=O)[C@H](Cc2ccc(O)cc2)NC1=O", "note": "[SEQ ID NO:37, Ac-[p-F-Phe^6,p-NH2 -Phe^10,Leu^12,Nle^17,Ala^19,Asp^25,Val^26,Thr^28]-VIP cyclo (Lys^21 →Asp^25)] (Ac-HSDAV[Phe(4-F)]TDN[Phe(4-NH2)]TLLRKQ[Nle]AAKKYLNDVLT-NH2; lactam 21-25)", "values": [
      {"measurement": "EC50", "setting": "[1]", "value": 4.4, "unit": "nM"}
    ]},
    {"smiles": "CCCC[C@H](NC(=O)[C@H](CCC(N)=O)NC(=O)[C@H](CCCCN)NC(=O)[C@H](CCCNC(=N)N)NC(=O)[C@H](CC(C)C)NC(=O)[C@@H]1CCCNC(=O)CC[C@H](NC(=O)[C@@H](NC(=O)[C@H](Cc2ccccc2)NC(=O)[C@@H](NC(=O)[C@H](C)NC(=O)[C@H](CC(=O)O)NC(=O)[C@H](CO)NC(=O)[C@H](Cc2c[nH]cn2)NC(C)=O)C(C)C)[C@@H](C)O)C(=O)N[C@@H](CC(N)=O)C(=O)N[C@@H](Cc2ccc(O)cc2)C(=O)N[C@@H]([C@@H](C)O)C(=O)N1)C(=O)N[C@@H](C)C(=O)N[C@H](C(=O)N[C@@H](CCCCN)C(=O)N[C@@H](CCCCN)C(=O)N[C@@H](Cc1ccc(O)cc1)C(=O)N[C@@H](CC(C)C)C(=O)N[C@@H](CC(N)=O)C(=O)N[C@@H](CO)C(=O)N[C@H](C(=O)N[C@@H](CC(C)C)C(=O)N[C@H](C(N)=O)[C@@H](C)O)C(C)C)C(C)C", "note": "[SEQ ID NO:25, Ac-[Glu^8,Orn^12,Nle^17,Val^26,Thr^28]-VIP cyclo (Glu^8 →Orn^12)] (Ac-HSDAVFTENYT[Orn]LRKQ[Nle]AVKKYLNSVLT-NH2; lactam 8-12)", "values": [
      {"measurement": "EC50", "setting": "[1]", "value": 16, "unit": "nM"}
    ]},
    {"smiles": "CCCC[C@H](NC(=O)[C@H](CCC(N)=O)NC(=O)[C@H](CCCCN)NC(=O)[C@H](CCCNC(=N)N)NC(=O)[C@H](CC(C)C)NC(=O)[C@H](CC(C)C)NC(=O)[C@@H](NC(=O)[C@H](Cc1ccc(OC)cc1)NC(=O)[C@H](CC(N)=O)NC(=O)[C@H](CC(=O)O)NC(=O)[C@@H](NC(=O)[C@H](Cc1ccccc1)NC(=O)[C@@H](NC(=O)[C@H](C)NC(=O)[C@H](CC(=O)O)NC(=O)[C@H](CO)NC(=O)[C@H](Cc1c[nH]cn1)NC(C)=O)C(C)C)[C@@H](C)O)[C@@H](C)O)C(=O)N[C@@H](C)C(=O)N[C@@H](C)C(=O)N[C@@H](CCCCN)C(=O)N[C@H]1CCCCNC(=O)C[C@@H](C(=O)N[C@H](C(=O)N[C@@H](CC(C)C)C(=O)N[C@H](C(N)=O)[C@@H](C)O)C(C)C)NC(=O)[C@H](CC(N)=O)NC(=O)[C@H](CC(C)C)NC(=O)[C@H](Cc2ccc(O)cc2)NC1=O", "note": "[SEQ ID NO:36, Ac-[O-Me-Tyr^10,Leu^12,Nle^17,Ala^19,Asp^25,Val^26,Thr^28]-VIP cyclo (Lys^21 →Asp^25)] (Ac-HSDAVFTDNY(Me)TLLRKQ[Nle]AAKKYLNDVLT-NH2; lactam 21-25)", "values": [
      {"measurement": "EC50", "setting": "[1]", "value": 0.84, "unit": "nM"}
    ]}
  ]
}
